# Laboratory results as given in US6652921B2, “Wood containing fixed sorbic acid or sorbic acid salts” (Nutrinova Nutrition Specialties & Food Ingredients GmbH, priority 2000, dated 2003).
# Legend:
# [1] = cited from earlier work; for Solubility in water: water (cold water for sorbic acid)
# [2] = mean body weight of 60 kg
# Protocol: Sorbic acid and its salts are accordingly permitted for food use by international committees and permitted worldwide as a preservative for direct addition to foods. The internationally established tolerable daily dose for humans of up to 25 mg/kg of body weight corresponds to a tolerable consumption by adults of up to 1.5 g per day (at a mean body weight of 60 kg).
# [3] = humans; internationally established; cited from earlier work
# fungi = conditions: cited from earlier work
# wood-damaging fungi = conditions: cited from earlier work
structure (smiles),measurement,setting,value
C/C=C/C=C/C(=O)[O-].[K+] [Potassium sorbate],Solubility in water,[1],dissolves very readily in water
"C/C=C/C=C/C(=O)O [Sorbic acid, trans, trans-2,4-hexadienoic acid]",Tolerable consumption by adults,[2],up to 1.5 g per day
same,Solubility in liquid alcohols,[1]; liquid alcohols,good
same,Solubility in water,[1],dissolves only sparingly in cold water
same,Tolerable daily dose,[3],up to 25 mg/kg of body weight
C/C=C/C=C/C(=O)[O-].[Na+] [sodium sorbate],Growth of fungi on treated bamboo,fungi; after a few days,growth of fungi and poorer results than the dehydroacetic acid
same,Activity depending on pH,fungi; bamboo,only active in these studies at a pH of 3.0
C/C=C/C=C/C(=O)[O-].C/C=C/C=C/C(=O)[O-].[Zn+2] [zinc salt of sorbic acid],Activity as wood preservative,wood-damaging fungi,inactive
